Experimental data as given in publication PMC3967790 (Journal of pharmaceutical sciences, 2013).
In brackets after ≈: the same amount, converted by molar mass. Like-named read-outs stand apart in the source and are kept apart here.

Legend:
[1] = Equilibrium solubility of elacridar in microemulsion components; assay type: physicochemical; conditions: 37 °C, oil or lipid, thermodynamic from solid
[2] = mouse, cited from earlier work
[3] = FVB, mouse, brain, oral, 20 mg/kg

Structure (SMILES)	solubility at 24 h ([1]; Captex 300 (oil)) [µg/mL]	solubility at 24 h ([1]; Captex 355 (oil)) [µg/mL]	bioavailability ([2]; intraperitoneal dose, suspension) [%]	bioavailability ([2]; oral dose, suspension at 100 mg/kg)	concentration at 1 h [3] [ng/mL]
COc1cc2c(cc1OC)CN(CCc1ccc(NC(=O)c3cccc4c(=O)c5cccc(OC)c5[nH]c34)cc1)CC2 [elacridar, N-(4-(2-(1,2,3,4-tetrahydro-6,7-dimethoxy-2-isoquinolinyl)ethyl)phenyl)-9,10-dihydro-5-methoxy-9-oxo-4-acridine carboxamide]	300 ± 1 (≈ 532 µM)	300 ± 1 (≈ 532 µM)	~1	about 22%	–
C#Cc1cccc(Nc2ncnc3cc(OCCOC)c(OCCOC)cc23)c1 [erlotinib]	–	–	–	–	76.4 ± 7.8
